Test systems include NCI-H460 lung; SK-MEL-28 melanoma; SW-620 colon; HS 578T breast; COLO 205 colon; SF-268 CNS; RPMI-8226 leukemia; SK-MEL-2 melanoma.
Common to all, as to assay: DTP human tumour cell line panel, 48 h

The record followed here is PubChem BioAssay (NCI).

Where “and” joins values, the source holds several entries; their conditions need not be identical. Equal values may be shown once.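 In this assay, cells in 96-well plates receive the compound at five concentrations for 48 hours. Endpoints are linearly interpolated between the surrounding concentrations. GI50 = concentration required for 50% inhibition of growth. TGI: total growth inhibition.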

What is called GI50 is the concentration at which growth is held to half of that of the control. As usually defined, the TGI is the concentration at which net growth stops. Higher therefore signals lower sensitivity of the cells. Take `Oc1ccc(Cc2ccccc2)c2cccnc12`: the GI50 is 1.61 µM in the test with NCI-H460 lung; 10.3 µM in the test on SK-MEL-28 melanoma; 3.39 µM with SW-620 colon; greater than 100 µM in the test with HS 578T breast; 7.74 µM in the test with COLO 205 colon; 2.18 µM in the test on SF-268 CNS. The GI50 in the test on RPMI-8226 leukemia was 1.46 µM; with SK-MEL-2 melanoma, 12.7 µM. Also, the TGI is 17.3 µM in the test on NCI-H460 lung; greater than 100 µM with SK-MEL-28 melanoma; 54.8 µM in the test with SW-620 colon; greater than 100 µM in the test with HS 578T breast; greater than 100 µM in the test on COLO 205 colon; 86.8 µM with SF-268 CNS. Besides, the TGI was greater than 100 µM with RPMI-8226 leukemia and 70.6 µM in the test on SK-MEL-2 melanoma.

Turning to `COc1ccccc1C(=O)c1ccc2ccccc2c1`, the TGI in the test with NCI-H460 lung is 84.1 µM; in the test on SK-MEL-28 melanoma it was greater than 100 µM; in the test with SW-620 colon, 75.2 µM; in the test on HS 578T breast it was 39.1 µM; in the test with COLO 205 colon, 61.5 µM; in the test on SF-268 CNS, greater than 100 µM. The TGI worked out at 97.5 µM in the test with RPMI-8226 leukemia and 37.5 µM with SK-MEL-2 melanoma.

Consider `CC(=O)O[C@H]1C(=O)[C@@]2(C)[C@H]([C@H](OC(=O)c3ccccc3)[C@]3([O-])C[C@H](OC(=O)[C@H]([O-])[C@@H](NC(=O)c4ccccc4)c4ccccc4)C(C)=C1C3(C)C)[C@]1(OC(C)=O)CO[C@@H]1C[C@@H]2[O-].[Fe+3]`, for which the 50% growth inhibitory concentration (GI50) in the test with NCI-H460 lung was 0.0266 µM and 0.0498 µM; in the test on SK-MEL-28 melanoma, 13.2 µM; with SW-620 colon, 0.0352 µM and 0.0664 µM; in the test on HS 578T breast, 0.0562 µM and 0.141 µM; in the test with COLO 205 colon, 0.0365 µM and 0.0432 µM; with SF-268 CNS, 0.104 µM and 0.165 µM. The GI50 in the test with RPMI-8226 leukemia is 0.0294 µM and 0.074 µM; in the test with SK-MEL-2 melanoma, 0.11 µM and 0.161 µM. The total growth inhibition concentration (TGI) in the test with NCI-H460 lung was 65 µM and 25.5 µM; with SK-MEL-28 melanoma it was 64.8 µM; in the test on SW-620 colon, 19.2 µM and 47.4 µM; in the test on COLO 205 colon, 0.226 µM and 0.508 µM; with SF-268 CNS, 45.3 µM and > 100 µM; in the test with RPMI-8226 leukemia, 65 µM and > 100 µM.

In the case of `CC1=C(C)C(=O)O[C@@H]([C@](C)(O)[C@]2(O)CC[C@@]3(O)[C@@H]4C[C@H]5O[C@]56CC=CC(=O)[C@]6(C)[C@H]4CC[C@]23C)C1`, the GI50 in the test on NCI-H460 lung is 0.618 µM; in the test with SK-MEL-28 melanoma, 0.233 µM; with SW-620 colon, 0.0989 µM; in the test on HS 578T breast, 0.127 µM; in the test with COLO 205 colon, 0.0398 µM; in the test on SF-268 CNS, 0.424 µM. Moreover, the GI50 in the test with RPMI-8226 leukemia is 0.0593 µM; with SK-MEL-2 melanoma, 0.0761 µM. For the same compound, the TGI in the test on NCI-H460 lung amounted to 2.4 µM; in the test on SK-MEL-28 melanoma it was 1.92 µM; in the test on SW-620 colon, 1.1 µM; with HS 578T breast, 2.33 µM; in the test on COLO 205 colon, 0.176 µM; in the test on SF-268 CNS it was 2.35 µM. Besides, the TGI in the test with RPMI-8226 leukemia stood at 1.78 µM; with SK-MEL-2 melanoma it was 0.481 µM.

In the case of `COc1cc(-c2cn(C)c(=O)c(C)c2C)cc(OC)c1CN1CC[C@H](N2CCN(c3ccc(N[C@H]4CCC(=O)NC4=O)cc3F)CC2)C(F)(F)C1`, the GI50 with NCI-H460 lung is 15.5 µM; with SK-MEL-28 melanoma it was 15.6 µM; in the test on SW-620 colon, 17.9 µM; with HS 578T breast, 4 µM; in the test with COLO 205 colon it was 14.4 µM; in the test on SF-268 CNS, 16.5 µM. In addition, the values for the GI50 with RPMI-8226 leukemia and in the test on SK-MEL-2 melanoma were 6.43 µM and 14.6 µM, respectively. For the same compound, the total growth inhibition concentration (TGI) was 32.4 µM with NCI-H460 lung; 30.9 µM in the test with SK-MEL-28 melanoma; 38 µM in the test with SW-620 colon; 38.5 µM with HS 578T breast; 37.4 µM in the test with COLO 205 colon; 40.2 µM in the test on SF-268 CNS. Moreover, the TGI was greater than 100 µM in the test on RPMI-8226 leukemia and 29.4 µM with SK-MEL-2 melanoma.

`COc1ccc2c(c1)C=CC(C#N)N2C(=O)c1ccccc1` (stereo unspecified): the GI50 with NCI-H460 lung is less than 0.01 µM; with SW-620 colon it was less than 0.01 µM; in the test with HS 578T breast, less than 0.01 µM; with COLO 205 colon, less than 0.01 µM; with SF-268 CNS, 0.488 µM; in the test with RPMI-8226 leukemia, less than 0.01 µM. The GI50 in the test with SK-MEL-2 melanoma was less than 0.01 µM. Further, the TGI is 36.7 µM in the test with NCI-H460 lung; greater than 100 µM with SK-MEL-28 melanoma; greater than 100 µM with SW-620 colon; greater than 100 µM in the test with HS 578T breast; less than 0.048 µM with COLO 205 colon; greater than 100 µM in the test with SF-268 CNS. Further, the TGI in the test with RPMI-8226 leukemia and in the test on SK-MEL-2 melanoma was greater than 100 µM throughout.

For the compound `CNC(=O)c1cc(Oc2ccc(NC(=O)Nc3ccc(Cl)c(OC(F)(F)F)c3)c(F)c2)ccn1`, the GI50 in the test on NCI-H460 lung is 2.22 µM; in the test with SK-MEL-28 melanoma it was 1.01 µM; with SW-620 colon, 2.13 µM; in the test with HS 578T breast, 3.81 µM; in the test on COLO 205 colon it was 1.14 µM; in the test with SF-268 CNS, 2.44 µM. The GI50 in the test with RPMI-8226 leukemia is 1.32 µM; in the test on SK-MEL-2 melanoma, 1.03 µM. Moreover, the TGI in the test on NCI-H460 lung is 17.6 µM; in the test on SK-MEL-28 melanoma, 4.27 µM; in the test with SW-620 colon, greater than 33.2 µM; in the test with HS 578T breast it was greater than 33.2 µM; in the test on COLO 205 colon it was 7.65 µM; in the test on SF-268 CNS, 14.2 µM. For the same compound, the TGI with RPMI-8226 leukemia is 7.85 µM; with SK-MEL-2 melanoma it was 5.86 µM.
